Molecules are shown by their SMILES.

Experiment [1] concerns the target T1, Aurora kinase C (Homo sapiens) (UniProt Q9UQB9).
T1 sequence (whole entry): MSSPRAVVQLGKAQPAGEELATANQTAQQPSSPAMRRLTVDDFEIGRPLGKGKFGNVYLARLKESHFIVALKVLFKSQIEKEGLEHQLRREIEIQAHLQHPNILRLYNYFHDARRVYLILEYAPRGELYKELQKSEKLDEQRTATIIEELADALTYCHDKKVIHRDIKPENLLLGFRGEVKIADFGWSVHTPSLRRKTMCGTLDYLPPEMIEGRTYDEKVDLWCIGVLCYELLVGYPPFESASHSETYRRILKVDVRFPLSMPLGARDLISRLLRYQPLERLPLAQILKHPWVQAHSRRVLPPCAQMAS
As to the kind of experiment: Inhibition of human full length AurC expressed in baculovirus assessed as substrate phosphorylation using fluorescence-labelled peptides as substrate at 8 uM after 90 mins by microfluidic peptide phosphorylation assay.

Experiment [2] deals with T2, cGMP-dependent protein kinase 1 (Homo sapiens) (UniProt Q13976).
T2 sequence (whole entry): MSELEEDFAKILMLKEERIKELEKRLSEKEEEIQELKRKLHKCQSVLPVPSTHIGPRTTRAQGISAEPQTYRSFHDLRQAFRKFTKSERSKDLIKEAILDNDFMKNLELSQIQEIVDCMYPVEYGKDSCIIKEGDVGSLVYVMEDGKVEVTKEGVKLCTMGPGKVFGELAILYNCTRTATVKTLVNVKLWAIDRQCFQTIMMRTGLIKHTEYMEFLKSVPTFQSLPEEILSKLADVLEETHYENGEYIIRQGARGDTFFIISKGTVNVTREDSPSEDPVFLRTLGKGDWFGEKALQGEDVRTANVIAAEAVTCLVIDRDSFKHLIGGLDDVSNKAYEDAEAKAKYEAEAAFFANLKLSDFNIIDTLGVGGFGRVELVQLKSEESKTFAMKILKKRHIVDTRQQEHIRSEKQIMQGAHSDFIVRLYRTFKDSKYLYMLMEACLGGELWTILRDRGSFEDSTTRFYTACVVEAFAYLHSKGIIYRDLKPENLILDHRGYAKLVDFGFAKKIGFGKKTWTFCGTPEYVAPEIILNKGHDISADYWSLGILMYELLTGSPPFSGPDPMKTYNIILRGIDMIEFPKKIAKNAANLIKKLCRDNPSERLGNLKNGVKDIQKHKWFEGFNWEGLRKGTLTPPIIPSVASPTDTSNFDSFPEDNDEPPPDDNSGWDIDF
As to the kind of experiment: Inhibition of human full length PKG-1beta expressed in baculovirus assessed as substrate phosphorylation using fluorescence-labelled peptides as substrate at 8 uM after 90 mins by microfluidic peptide phosphorylation assay.

Experiment [3] concerns the target Epidermal growth factor receptor (Homo sapiens) (UniProt P00533). Description: Inhibition of human EGFR catalytic domain expressed in baculovirus assessed as substrate phosphorylation using fluorescence-labelled peptides as substrate at 8 uM after 90 mins by microfluidic peptide phosphorylation assay.
Experiment [4] deals with Calcium/calmodulin-dependent protein kinase type II subunit beta (Homo sapiens) (UniProt Q13554). The note with it: 0.1 uM.
Description: Inhibition of human CAMK2 beta catalytic domain expressed in baculovirus assessed as substrate phosphorylation using fluorescence-labelled peptides as substrate at 0.1 uM after 90 mins by microfluidic peptide phosphorylation assay
Experiment [5] deals with T3, Protein kinase C zeta type (Homo sapiens) (UniProt Q05513).
T3 sequence (whole entry): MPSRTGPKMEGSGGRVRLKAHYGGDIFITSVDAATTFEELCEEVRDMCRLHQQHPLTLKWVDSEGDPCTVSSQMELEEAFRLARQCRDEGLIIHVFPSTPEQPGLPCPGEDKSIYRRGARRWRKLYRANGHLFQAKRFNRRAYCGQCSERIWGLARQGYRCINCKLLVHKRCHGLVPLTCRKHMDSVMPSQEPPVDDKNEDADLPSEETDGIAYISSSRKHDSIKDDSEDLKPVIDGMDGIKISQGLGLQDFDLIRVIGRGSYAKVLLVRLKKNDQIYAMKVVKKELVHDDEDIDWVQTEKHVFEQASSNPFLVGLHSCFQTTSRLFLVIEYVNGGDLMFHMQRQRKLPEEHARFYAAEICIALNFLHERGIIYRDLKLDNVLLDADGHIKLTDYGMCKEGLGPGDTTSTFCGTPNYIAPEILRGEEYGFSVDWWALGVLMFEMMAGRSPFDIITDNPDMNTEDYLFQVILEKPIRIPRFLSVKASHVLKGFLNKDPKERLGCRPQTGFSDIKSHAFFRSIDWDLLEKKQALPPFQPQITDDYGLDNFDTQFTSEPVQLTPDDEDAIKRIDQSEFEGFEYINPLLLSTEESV
As to the kind of experiment: Inhibition of human full length PKC zeta expressed in baculovirus assessed as substrate phosphorylation using fluorescence-labelled peptides as substrate at 0.06 uM after 90 mins by microfluidic peptide phosphorylation assay.

Experiment [6] deals with Serine/threonine-protein kinase Chk2 (Homo sapiens) (UniProt O96017). As to the kind of experiment: Inhibition of human full length CHK2 expressed in baculovirus assessed as substrate phosphorylation using fluorescence-labelled peptides as substrate at 0.2 uM after 90 mins by microfluidic peptide phosphorylation assay.
Experiment [7] addresses Tyrosine-protein kinase Lyn (Homo sapiens) (UniProt P07948). As to the kind of experiment: Inhibition of human full length LYN expressed in baculovirus assessed as substrate phosphorylation using fluorescence-labelled peptides as substrate at 95 uM after 90 mins by microfluidic peptide phosphorylation assay.
Experiment [8] has as its target T4, Interleukin-1 receptor-associated kinase 4 (Homo sapiens) (UniProt Q9NWZ3).
T4 sequence (whole entry): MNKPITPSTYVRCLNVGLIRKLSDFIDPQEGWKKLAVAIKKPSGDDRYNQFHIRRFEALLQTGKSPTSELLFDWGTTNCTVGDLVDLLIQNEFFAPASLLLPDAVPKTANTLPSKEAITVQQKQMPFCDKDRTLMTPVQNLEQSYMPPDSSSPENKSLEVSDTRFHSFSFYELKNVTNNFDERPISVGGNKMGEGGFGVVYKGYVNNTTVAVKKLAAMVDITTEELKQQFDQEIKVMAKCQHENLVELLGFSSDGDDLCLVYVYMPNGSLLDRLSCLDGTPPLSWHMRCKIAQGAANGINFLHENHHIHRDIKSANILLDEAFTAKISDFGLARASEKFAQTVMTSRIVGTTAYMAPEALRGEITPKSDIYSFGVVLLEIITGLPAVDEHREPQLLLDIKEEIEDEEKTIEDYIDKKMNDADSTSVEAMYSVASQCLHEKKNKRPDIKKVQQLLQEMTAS
Description: Inhibition of human IRAK4 catalytic domain expressed in baculovirus assessed as substrate phosphorylation using fluorescence-labelled peptides as substrate at 95 uM after 90 mins by microfluidic peptide phosphorylation assay.

Experiment [9] deals with Serine/threonine-protein kinase MARK1 (Homo sapiens) (UniProt Q9P0L2). As to the kind of experiment: Inhibition of human full length MARK1 expressed in baculovirus assessed as substrate phosphorylation using fluorescence-labelled peptides as substrate at 95 uM after 90 mins by microfluidic peptide phosphorylation assay.
Experiment [10] has as its target Tyrosine-protein kinase HCK (Homo sapiens) (UniProt P08631). As to the kind of experiment: Inhibition of human HCK catalytic domain expressed in baculovirus assessed as substrate phosphorylation using fluorescence-labelled peptides as substrate at 1000 uM after 90 mins by microfluidic peptide phosphorylation assay.

Chain of Tyrosine-protein kinase Lyn (Homo sapiens) (P07948 2-512 limits assumed): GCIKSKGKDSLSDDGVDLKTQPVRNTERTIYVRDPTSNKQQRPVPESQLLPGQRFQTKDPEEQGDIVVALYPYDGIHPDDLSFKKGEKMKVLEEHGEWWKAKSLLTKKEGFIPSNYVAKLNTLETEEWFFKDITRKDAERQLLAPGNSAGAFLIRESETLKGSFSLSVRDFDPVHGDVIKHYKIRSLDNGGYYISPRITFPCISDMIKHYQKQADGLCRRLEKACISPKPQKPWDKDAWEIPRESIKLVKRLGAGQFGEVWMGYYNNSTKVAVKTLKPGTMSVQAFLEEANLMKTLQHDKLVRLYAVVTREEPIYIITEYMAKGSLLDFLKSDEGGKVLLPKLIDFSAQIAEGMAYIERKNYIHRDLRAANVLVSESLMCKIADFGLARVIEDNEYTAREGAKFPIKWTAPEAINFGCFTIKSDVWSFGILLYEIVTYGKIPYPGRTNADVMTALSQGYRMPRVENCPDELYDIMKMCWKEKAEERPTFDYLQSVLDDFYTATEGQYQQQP
Chain of Serine/threonine-protein kinase Chk2 (Homo sapiens) (O96017 whole entry): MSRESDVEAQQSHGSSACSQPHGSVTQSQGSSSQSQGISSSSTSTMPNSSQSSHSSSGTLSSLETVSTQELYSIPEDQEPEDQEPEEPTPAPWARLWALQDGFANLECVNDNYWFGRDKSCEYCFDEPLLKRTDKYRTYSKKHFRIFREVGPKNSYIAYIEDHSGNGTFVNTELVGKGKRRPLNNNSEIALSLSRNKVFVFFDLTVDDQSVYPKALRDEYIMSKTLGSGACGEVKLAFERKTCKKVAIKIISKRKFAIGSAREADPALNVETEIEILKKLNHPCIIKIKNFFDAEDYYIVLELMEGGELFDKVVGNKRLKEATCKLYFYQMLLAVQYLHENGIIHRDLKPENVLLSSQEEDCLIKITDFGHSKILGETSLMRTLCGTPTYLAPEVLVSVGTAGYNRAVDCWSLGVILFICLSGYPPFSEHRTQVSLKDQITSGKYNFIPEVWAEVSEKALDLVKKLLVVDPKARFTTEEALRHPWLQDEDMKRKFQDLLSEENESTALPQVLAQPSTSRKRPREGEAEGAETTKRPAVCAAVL
Chain of Tyrosine-protein kinase HCK (Homo sapiens) (P08631 2-526 limits assumed): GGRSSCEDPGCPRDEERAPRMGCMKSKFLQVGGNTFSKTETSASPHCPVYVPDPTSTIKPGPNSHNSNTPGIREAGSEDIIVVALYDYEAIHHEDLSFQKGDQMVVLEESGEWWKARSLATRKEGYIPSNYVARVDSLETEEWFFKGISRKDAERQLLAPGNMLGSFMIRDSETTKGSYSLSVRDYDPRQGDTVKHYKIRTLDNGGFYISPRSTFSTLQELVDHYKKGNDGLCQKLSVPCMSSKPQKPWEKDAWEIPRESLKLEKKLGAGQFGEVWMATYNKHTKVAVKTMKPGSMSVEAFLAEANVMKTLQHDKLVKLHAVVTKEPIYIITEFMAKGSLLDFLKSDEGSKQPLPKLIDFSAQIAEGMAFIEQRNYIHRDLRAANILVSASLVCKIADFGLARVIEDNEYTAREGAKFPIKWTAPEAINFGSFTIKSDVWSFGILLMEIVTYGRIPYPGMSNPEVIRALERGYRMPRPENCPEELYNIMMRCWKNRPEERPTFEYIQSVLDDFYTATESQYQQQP
Chain of Epidermal growth factor receptor (Homo sapiens) (P00533 whole entry, the tested form may be a part): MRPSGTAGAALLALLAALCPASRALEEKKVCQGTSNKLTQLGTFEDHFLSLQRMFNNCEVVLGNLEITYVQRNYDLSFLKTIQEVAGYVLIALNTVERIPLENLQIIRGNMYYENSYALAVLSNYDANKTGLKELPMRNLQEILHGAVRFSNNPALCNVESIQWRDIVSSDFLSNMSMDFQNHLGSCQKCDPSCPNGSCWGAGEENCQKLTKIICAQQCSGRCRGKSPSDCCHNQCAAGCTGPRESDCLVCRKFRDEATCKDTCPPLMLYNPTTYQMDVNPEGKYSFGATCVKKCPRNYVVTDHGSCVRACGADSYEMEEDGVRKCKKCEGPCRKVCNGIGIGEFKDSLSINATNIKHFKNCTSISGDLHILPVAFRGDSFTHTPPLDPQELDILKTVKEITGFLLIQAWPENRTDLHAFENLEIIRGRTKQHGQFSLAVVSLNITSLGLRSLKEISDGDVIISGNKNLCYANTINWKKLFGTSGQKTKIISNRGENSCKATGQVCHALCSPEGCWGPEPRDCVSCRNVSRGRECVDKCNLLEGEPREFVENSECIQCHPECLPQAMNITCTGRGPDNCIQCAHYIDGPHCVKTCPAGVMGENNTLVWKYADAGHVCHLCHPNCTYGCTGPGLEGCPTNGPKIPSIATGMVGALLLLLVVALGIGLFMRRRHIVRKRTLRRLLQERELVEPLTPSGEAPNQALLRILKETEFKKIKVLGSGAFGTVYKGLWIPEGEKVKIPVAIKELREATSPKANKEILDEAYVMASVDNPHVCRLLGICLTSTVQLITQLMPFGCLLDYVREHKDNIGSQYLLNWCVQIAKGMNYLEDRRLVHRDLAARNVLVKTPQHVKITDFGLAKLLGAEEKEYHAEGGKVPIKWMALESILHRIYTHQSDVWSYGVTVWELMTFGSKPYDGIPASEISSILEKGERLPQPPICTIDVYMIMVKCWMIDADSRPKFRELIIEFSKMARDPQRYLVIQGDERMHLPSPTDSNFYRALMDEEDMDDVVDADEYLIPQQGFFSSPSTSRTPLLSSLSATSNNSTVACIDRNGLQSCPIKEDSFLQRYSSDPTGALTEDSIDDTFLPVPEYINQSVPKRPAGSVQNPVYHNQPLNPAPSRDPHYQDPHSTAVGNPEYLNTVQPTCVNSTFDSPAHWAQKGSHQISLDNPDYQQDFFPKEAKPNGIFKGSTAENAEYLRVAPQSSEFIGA
Chain of Calcium/calmodulin-dependent protein kinase type II subunit beta (Homo sapiens) (Q13554 whole entry): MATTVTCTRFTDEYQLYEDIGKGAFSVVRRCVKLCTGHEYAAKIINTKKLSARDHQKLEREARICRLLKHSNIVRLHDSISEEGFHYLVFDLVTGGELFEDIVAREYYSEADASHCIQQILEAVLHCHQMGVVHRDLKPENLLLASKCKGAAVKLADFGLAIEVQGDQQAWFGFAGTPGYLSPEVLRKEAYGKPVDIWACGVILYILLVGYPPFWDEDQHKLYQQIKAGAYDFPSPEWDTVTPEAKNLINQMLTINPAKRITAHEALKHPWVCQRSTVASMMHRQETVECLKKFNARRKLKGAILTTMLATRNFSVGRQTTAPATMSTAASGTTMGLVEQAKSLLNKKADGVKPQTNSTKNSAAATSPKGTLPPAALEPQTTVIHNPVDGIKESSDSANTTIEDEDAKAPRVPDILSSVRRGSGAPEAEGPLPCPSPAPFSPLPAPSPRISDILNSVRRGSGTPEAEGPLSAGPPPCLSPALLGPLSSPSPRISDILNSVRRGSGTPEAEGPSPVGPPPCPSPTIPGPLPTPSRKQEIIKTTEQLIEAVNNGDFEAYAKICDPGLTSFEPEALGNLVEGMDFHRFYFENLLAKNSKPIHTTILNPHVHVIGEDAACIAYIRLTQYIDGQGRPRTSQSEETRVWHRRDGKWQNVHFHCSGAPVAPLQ
Chain of Serine/threonine-protein kinase MARK1 (Homo sapiens) (Q9P0L2 whole entry, looked up, the tested form may be a part): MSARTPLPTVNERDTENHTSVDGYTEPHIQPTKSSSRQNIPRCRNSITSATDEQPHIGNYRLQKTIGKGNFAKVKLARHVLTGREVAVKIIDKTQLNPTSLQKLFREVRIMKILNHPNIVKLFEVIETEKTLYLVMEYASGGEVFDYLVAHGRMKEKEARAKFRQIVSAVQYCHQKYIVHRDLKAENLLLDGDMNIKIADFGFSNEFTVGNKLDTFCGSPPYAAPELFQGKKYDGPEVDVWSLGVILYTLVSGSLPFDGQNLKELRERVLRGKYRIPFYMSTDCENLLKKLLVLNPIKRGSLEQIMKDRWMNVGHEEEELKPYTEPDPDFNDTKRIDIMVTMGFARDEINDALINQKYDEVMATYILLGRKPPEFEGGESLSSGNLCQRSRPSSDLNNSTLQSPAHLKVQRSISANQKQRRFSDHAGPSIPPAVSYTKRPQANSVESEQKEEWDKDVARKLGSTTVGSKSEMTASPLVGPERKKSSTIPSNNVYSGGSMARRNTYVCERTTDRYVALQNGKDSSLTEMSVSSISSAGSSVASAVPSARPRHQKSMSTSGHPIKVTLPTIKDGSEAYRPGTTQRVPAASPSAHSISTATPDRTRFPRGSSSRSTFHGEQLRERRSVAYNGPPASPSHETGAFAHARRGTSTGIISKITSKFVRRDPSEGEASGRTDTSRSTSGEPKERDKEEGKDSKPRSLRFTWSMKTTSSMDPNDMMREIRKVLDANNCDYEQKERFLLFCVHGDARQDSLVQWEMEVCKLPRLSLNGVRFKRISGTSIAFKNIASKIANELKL

What is called inhibition is the relative decrease from the control value, in per cent. As to `NCC1CCN(c2ncnc3[nH]ccc23)CC1`, the inhibition stood at 34% in experiment [1], 76.5% in [2] and 33% in experiment [3]. `C[C@H](CN(C)C)Oc1nc(Nc2cc3cccc(Cl)c3cn2)cnc1C#N`: the inhibition in experiment [4] is 0%.

As for `NC1(Cc2ccc(Cl)cc2)CCN(c2ncnc3[nH]ccc23)CC1`, the inhibition in [5] was determined as 0%. Consider `Clc1ccc(C2(c3ccc(-c4ncnc5[nH]cnc45)cc3)CCNCC2)cc1`, for which, in [6], the inhibition came out at 59%. With `NCCc1ccc(-c2ncnc3[nH]cnc23)cc1`, the inhibition was 65.5% in [7], 34% in experiment [8] and 97% in experiment [9]. In the case of `c1cnc2[nH]ccc2c1`, the inhibition in experiment [10] came out at 30%.

Values taken from ChEMBL document CHEMBL3132769, “Fragment growing to retain or alter the selectivity of anchored kinase hinge-binding fragments” (Medchemcomm, 2014).
